Entries after “also recorded” stand apart in the source; their conditions may differ.
What was measured:
HUVECs = assay: HUVEC proliferation assay (MTT); assay type: cell-based, human; conditions: for reduction in HUVECs proliferation: 72 h, MTT
Method: Human Umbilical Vein Endothelial Cells (HUVECs) or human melanoma cell line (A375) were used to validate the ability of the compound to suppress endothelial cell proliferation. Each 1500 A375 cells/well or 2000 HUVEC cells/well were seeded in a 96 wells plate and allowed to adhere to the plate for few hours. Compounds were then added to the cells at concentration range of 0.05-10 μM (<0.1% DMSO). Cells were then incubated for additional 72 hours and MTT was done (2 to 3 h at 37° C.). The dye was solubilized with DMSO and the absorbance was determined at 570 nm.
A375 were seeded (2000 cells/well) exposed to TNP-470 and to arrange concentrations of AD-3281 (1-100 μM) cells were incubated for 72 h at 37° C., After incubation, MTT (Sigma Aldrich, St. Louis City, MO, USA) was added (0.5 mg/mL) into each well for viability detection and incubated at 37° C. and 5% CO2 for 40 minutes. The absorbance was measured at 540 nm using a plate reader (Wallac 1420 VICTOR plate reader, Perkin-Elmer Life Sciences, USA). The proliferation of HUVECs was measured under the same conditions. HUVECs were seeded (3000 cells/well) in 96-well plates
To further verify the inhibition activity of encapsulated AD-3281 in PLGA nanoparticles HUVECS and A375 were exposed to different concentrations of nanoparticles equivalent to 50-1000 nM free AD-3281 (0.2-4.16 mg/ml nanoparticles) empty nanoparticles were added as a control. The effect of AD-3281 on HUVECs growth was evaluated after 5 days.
A375 were seeded (2000 cells/well) exposed to TNP-470 and to arrange concentrations of AD-3281 (1-100 μM) cells were incubated for 72 h at 37° C., after incubation, MTT (Sigma Aldrich, St. Louis City, MO, USA) was added (0.5 mg/mL) into each well for viability detection and incubated at 37° C. and 5% CO2 for 40 minutes. The absorbance was measured at 540 nm using a plate reader (Wallac 1420 VICTOR plate reader, Perkin-Elmer Life Sciences, USA). The proliferation of HUVECs was measured under the same conditions. HUVECs were seeded (3000 cells/well) in 96-well plates. […]

A375 xenograft = A375 xenograft in mice; assay type: in vivo, Foxn1 nu mice; conditions: for inhibition in tumor growth: 15 mg/kg and 30 mg/kg I.P. q.o.d
Method: (§1) Animal studies were approved by the Institutional Animal Care and Use Committee of the Faculty of Medicine of the Hebrew University and followed the guidelines for use of laboratory animals. 6-8-week-old male Foxn1 nu mice were S.C. injected with 5×10^6 A375 and MDA-MB-231 cells/mouse. Mice were I.P treated with 30 mg/kg and 15 mg/kg AD-3281 every other day and with 15 mg/kg, 7.5 mg/kg AD-3281 every other day in mice injected with A375 and MDA-MB-231 respectively. Tumor growth was measured with a digital caliper. At the end of the experiments after 18 or 15 days, mice were sacrificed, and tumors were surgically removed, weighed, volume was measured and histology stating was performed. AD-3281 was dissolved in 10:10:80 […]:ethanol:saline.
(§2) Animal studies were approved by the Institutional Animal Care and Use Committee of the Faculty of Medicine of the Hebrew University and followed the guidelines for use of laboratory animals. 6-8-week-old male Foxn1 nu mice were S.C. injected with 5×10^6 A375 or MDA-MB-231 cells/mouse. Mice were I.P treated with 30 mg/kg and 15 mg/kg AD-3281 q.o.d and with 15 mg/kg, 7.5 mg/kg AD-3281 (dissolved in 10:10:80 Cremophor EL: Ethanol: Saline) q.o.d in mice injected with A375 and MDA-MB-231 respectively. Tumor growth was measured with a digital caliper. At the end of the experiments after 18 or 15 days, mice were sacrificed, and tumors were surgically removed, weighed, volume was measured and histology stating was performed. Tumor tissues were resected at the end point and analyzed by immunohistology using standard protocol for paraffin fixed sections using anti-Ki-67 (Abcam, catalog number ab15580), anti-CD31 (Abcam, catalog number ab28364), anti-MetAp-2 (Ab134124, Abcam, Cambridge, UK) (Figure S.

[1] = tested on: A375 3D multicellular spheroids; assay: A375 3D spheroid viability (WST1); assay type: cell-based, human; conditions: 50 μM free inhibitor, 96 h
Method: 3D Petri Dish 35-well array (Microtissues Inc., RI, USA) was used to create 2% agarose hydrogel micro-wells. Each well contained 5,000 cells of A375 cells. 30 minutes after seeding, 1 ml of medium was added and templates were incubated at 37° C. for 24 hours. […] The absorbance was measured at 450 nm using a plate reader (Wallac 1420 VICTOR plate reader, Perkin-Elmer Life Sciences, USA).

MDA-MB-231 xenograft = MDA-MB-231 xenograft in mice; assay type: in vivo, Foxn1 nu mice
Method: as §1, §2

For COC1C(OC(=O)CC23CC4CC(CC(C4)C2)C3)CCC2(CO2)C1C1(C)OC1CC=C(C)C (centres unmarked) [AD-3281, Fumagillol-1-adamantylacetate], the “suppression of endothelial cell proliferation (ranking among compounds)” value (HUVECs) was “most active”, the “reduction in HUVECs proliferation” value (HUVECs; 1 μM) was 40% and the “reduction in HUVECs proliferation” value (HUVECs; 10 μM) was 50%. The “inhibition in tumor growth” value (A375 xenograft; after 8 days, vs control) was ~70%, the “inhibition in tumor growth” value (A375 xenograft; day 18) was 99% and the “cellular proliferation in tumors (Ki-67)” value (A375 xenograft; immunofluorescent staining of extracted tumors) was “less cellular proliferation than untreated tumors”. For the same compound, the “mean weight of extracted tumors” value (A375 xenograft; treated groups, day 18 (untreated 1 g)) was ~0.1 g, the “effect of free inhibitor on spheroids viability” value [1] was “did not show a significant reduction; also recorded: slight reduction of spheroids viability” and the “mean weight of extracted tumors” value (MDA-MB-231 xenograft; 7.5 mg/kg q.o.d (untreated 1 g)) was 0.05 g. The tumor volume inhibition (MDA-MB-231 xenograft; 7.5 mg/kg q.o.d, after 15 days) was 97%, the “mean weight of extracted tumors” value (MDA-MB-231 xenograft; 15 mg/kg q.o.d (untreated 1 g)) was 0.001 g and the “tumors that seemed completely eradicated” value (MDA-MB-231 xenograft; 15 mg/kg q.o.d, after 15 days, n=4) was 3 tumors. The systemic adverse effects (MDA-MB-231 xenograft; all treated mice) was “no signs of systemic adverse effects” and the “weight loss (>10%)” value (MDA-MB-231 xenograft; all treated mice) was “not weight loss was detected”.

Reference: patent US20250129033A1, “METAP2 INHIBITORS AND USES THEREOF” (Yissum Research Development Company of the Hebrew …, priority 2022, published 2025)
